Target: T1, Arachidonate 15-lipoxygenase (Pseudomonas aeruginosa, UniProt Q9I4G8)
T1 sequence (Q9I4G8 whole entry): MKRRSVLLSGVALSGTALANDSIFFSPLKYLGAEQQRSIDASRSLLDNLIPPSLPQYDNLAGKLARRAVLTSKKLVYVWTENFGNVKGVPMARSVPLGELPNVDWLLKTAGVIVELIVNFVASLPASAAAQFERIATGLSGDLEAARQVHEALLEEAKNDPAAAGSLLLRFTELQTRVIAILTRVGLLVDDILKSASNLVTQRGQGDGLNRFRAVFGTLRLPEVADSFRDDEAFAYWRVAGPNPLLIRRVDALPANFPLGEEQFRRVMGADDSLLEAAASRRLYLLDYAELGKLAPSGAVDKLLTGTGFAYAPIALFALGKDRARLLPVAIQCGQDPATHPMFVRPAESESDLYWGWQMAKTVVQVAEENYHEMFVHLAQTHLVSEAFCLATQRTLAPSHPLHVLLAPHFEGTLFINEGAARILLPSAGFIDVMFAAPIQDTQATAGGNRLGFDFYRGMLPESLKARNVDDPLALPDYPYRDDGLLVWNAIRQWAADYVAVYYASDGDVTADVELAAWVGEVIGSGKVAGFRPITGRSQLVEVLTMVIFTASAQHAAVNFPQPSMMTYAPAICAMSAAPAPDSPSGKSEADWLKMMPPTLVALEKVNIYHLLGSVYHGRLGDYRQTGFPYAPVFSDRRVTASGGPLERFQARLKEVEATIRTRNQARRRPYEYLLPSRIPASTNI
Experiment: LoxA Selectivity Assay
Conditions: pH 7; 25 °C
Method: The one-point inhibition percentages were determined for human LOX inhibitors by following the formation of the conjugated diene product at 234 nm (ε = 25,000 M−1 cm−1) at an inhibitor concentration of 25 μM. All reaction mixtures were 2 mL in volume and constantly stirred using a magnetic stir bar at room temperature (22 °C) with 7 nM LoxA. Reactions were conducted in 25 mM HEPES buffer (pH 7.0), 0.01% Triton X-100, and 10 μM AA. The concentration of AA was quantitatively determined by allowing the enzymatic reaction to go to completion. Confirmed hitswere then screened against the human isozymes 5-LOX, 15-LOX-1, 15-LOX-2, and 12-LOX for specificity.

O=C(OCC#CCSc1nnc(-c2cccc3ccccc23)o1)c1ccccc1 [4-(5-(Naphthalen-1-yl)-1,3,4-oxadiazol-2-ylthio)but-2-ynyl benzoate]
IC50: 0.01 µM

CC(Cc1ccc(O)c(O)c1)C(C)Cc1ccc(O)c(O)c1 (stereo not given) [LOX inhibitor, N/A]
IC50: 0.5 µM

CCCCCCc1ccc(Oc2ccccc2Cl)c(O)c1 [PT91]
IC50: 2.6 µM

CCCCCCc1ccc(Oc2ccccc2F)c(O)c1 [PT113]
IC50: 1 µM

CCCCCCc1ccn(Cc2ccccc2C)c(=O)c1 [PT171]
IC50: 0.52 µM
